Source: US3950513A, “Process of stabilizing therapeutically useful plasmin solutions” (Novo Terapeutisk Laboratorium A/S, priority 1969, dated 1976)
“Also recorded” adds a separate entry of the source. Like-named read-outs stand apart in the source and are kept apart here. Where a SMILES comes first, the peptide text is derived from it.

Assays:
[1] = tested on: partially purified plasmin from human plasma; settings: cited from earlier work; for effect on autolysis of plasmin: neutral solutions, 37°C
[2] = target: T1, plasmin solution from swine blood (Sus scrofa, UniProt P06867); test: Plasmin activity at high amino acid concentration and after dilution (reversible inactivation); format: biochemical
T1 construct: from tissue; host or cells: swine blood
T1 sequence (P06867 97-579 limits assumed): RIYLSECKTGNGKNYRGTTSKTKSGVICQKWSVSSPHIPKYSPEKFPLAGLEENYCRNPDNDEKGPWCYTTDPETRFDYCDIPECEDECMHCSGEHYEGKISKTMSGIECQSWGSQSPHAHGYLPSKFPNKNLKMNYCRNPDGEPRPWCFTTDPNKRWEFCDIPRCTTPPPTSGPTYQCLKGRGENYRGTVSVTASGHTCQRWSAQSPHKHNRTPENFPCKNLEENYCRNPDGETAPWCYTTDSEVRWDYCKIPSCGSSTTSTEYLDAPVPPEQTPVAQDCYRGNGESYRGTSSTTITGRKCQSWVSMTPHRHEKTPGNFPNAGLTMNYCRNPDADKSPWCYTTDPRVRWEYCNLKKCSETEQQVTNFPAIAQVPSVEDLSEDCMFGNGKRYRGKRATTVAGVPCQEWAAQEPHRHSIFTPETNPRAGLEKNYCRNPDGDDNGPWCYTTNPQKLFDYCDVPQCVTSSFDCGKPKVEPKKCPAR
T1 sequence (P06867 580-809 limits assumed): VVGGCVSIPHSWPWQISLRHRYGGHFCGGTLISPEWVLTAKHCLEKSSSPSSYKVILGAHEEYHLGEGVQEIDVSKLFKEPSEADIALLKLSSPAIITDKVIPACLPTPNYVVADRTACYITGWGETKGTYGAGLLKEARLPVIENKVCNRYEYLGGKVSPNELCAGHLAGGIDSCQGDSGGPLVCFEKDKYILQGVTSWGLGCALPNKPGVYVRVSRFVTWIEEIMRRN
Procedure: (§1) Usually the activity of plasmin solutions is expressed in the number of plasmin units per milliliter. However, no definition of a plasmin unit has until now been internationally adopted. Here and in the following one plasmin unit means the amount of plasmin causing in 20 minutes the formation of decomposition products being soluble in perchloric acid and having an extinction of 1 unit at 275 mμ under the following experimental conditions:
1 […] OF THE PLASMIN SOLUTION THE ACTIVITY OF WHICH IS TO BE DETERMINED AND THE PH of which is 7.5 is added to two test tubes each containing in 0.4 molar phosphate buffer (pH 7.50) 1 milliliter of a 3 per cent's solution of Hammarsten Casein said solution having been preheated to 35.5°C. […] By the addition of the perchloric acid a precipitation takes place, and the two test tubes now stand for 20 minutes whereafter filtration two times through filtering paper (J. H. Munktells unrivalled Genuine Swedish Filtering Paper No. 0.9 cm) is carried out. The extinction of the two solutions is thereafter measured at 275 mμ in a Beckman D U Spectrophotometer (1 cm quartz cuvette), the value of the sample having stood for 2 minutes being used as blind value.
By way of illustration reference may be made to the following experiments:
a. A plasmin solution from swine blood and containing about 0.4 plasmin unit per milliliter and 2 millimoles of L-lysine per plasmin unit is produced in phosphate buffer (pH 7.5) whereafter the plasmin activity of the mixture is determined and compared with the activity of the plasmin solution without the amino acid addition and the activity of the mixture is expressed in per cent of the activity of the unmixed plasmin solution. Thereafter a dilution of the solution is carried out expressed in the original volume of the plasmin solution divided by the volume of the plasmin solution after the dilution, and the activity of the diluted solutions is determined.

plasmin [3] = target: plasmin (Homo sapiens, UniProt P00747); settings: plasmin about 0.047 to about 0.229 units per ml; cited from earlier work
[4] = target: T2, plasmin originating from swine blood (Sus scrofa, UniProt P06867); test: Stabilizing effect of amino acids on plasmin solution, residual plasmin activity (casein) on storage; format: biochemical; settings: 35.5°C, employed concentration 0.25 millimole per plasmin unit
T2 construct: from tissue; host or cells: swine blood
T2 sequence (P06867 97-579 limits assumed): as the sequence (P06867 97-579 limits assumed) above
T2 sequence (P06867 580-809 limits assumed): as the sequence (P06867 580-809 limits assumed) above
Procedure: as §1
By the addition of the perchloric acid a precipitation takes place, and the two test tubes now stand for 20 minutes whereafter filtration two times through filtering paper (J. H. Munktells unrivalled Genuine Swedish Filtering Paper No. 0.9 cm) is carried out. The extinction of the two solutions is thereafter measured at 275 mμ in a Beckman D U Spectrophotometer (1 cm quartz cuvette), the value of the sample having stood for 2 minutes being used as blind value.
If not, a saturated amino acid solution is employed.

plasmin [5] = target: T3, plasmin (Sus scrofa, UniProt P06867); format: biochemical, swine; settings: for % activity after 120 min. at 25°C / % activity after 60 min. at 25°C: 0.3 plasmin units per ml
T3 sequence (P06867 97-579 limits assumed): as the sequence (P06867 97-579 limits assumed) above
T3 sequence (P06867 580-809 limits assumed): as the sequence (P06867 580-809 limits assumed) above
Procedure: as §1
1 […] THE PLASMIN SOLUTION THE ACTIVITY OF WHICH IS TO BE […] THE PH of which is 7.5 is added to two test tubes each containing in 0.4 molar phosphate buffer (pH 7.50) 1 […] a 3 per cent's solution of Hammarsten Casein said solution having been preheated to 35.5°C. […] By the addition of the perchloric acid a precipitation takes place, and the two test tubes now stand for 20 minutes whereafter filtration two times through filtering paper (J. H. Munktells unrivalled Genuine Swedish Filtering Paper No. 0.9 cm) is carried out. The extinction of the two solutions is thereafter measured at 275 mμ in a Beckman D U Spectrophotometer (1 cm quartz cuvette), the value of the sample having stood for 2 minutes being used as blind value.
The stabilizing effect of a long series of amino acids has been examined in connection with plasmin originating from swine blood and dissolved in phosphate buffer (pH 7.5). […] If not, a saturated amino acid solution is employed.

plasmin [6] = target: T3, plasmin; test: Initial loss of plasmin on adjusting concentrated acidified solution to pH 7.5; format: biochemical; settings: 10 plasmin units per ml adjusted to pH 7.5 at 25°C
Text: In the tests referred to above use has been made of plasmin solutions having a plasmin content of 0.3 and 0.4 units, respectively, per milliliter. When using more concentrated solutions, e.g. containing 10 plasmin units per milliliter, an appreciable initial loss of plasmin will occur immediately by the adjustment of the pH-value from 2-3 up to neutral reaction unless amino acids are present in sufficient amounts. Thus, in the course of a few minutes an initial loss of 20 per cent may e.g. arise when an acidified plasmin solution containing 10 plasmin units per milliliter is adjusted to pH 7.5 at 25°C even if lysine is present in the solution in an amount of 0.002 millimole per plasmin unit. Such initial loss can, however, be avoided by increasing the amino acid concentration.

[7] = Solubility of plasmin in neutral aqueous solution; format: physicochemical; settings: no amino acid
Text: While a neutral solution of plasmin in water becomes turbid due to a precipitation of plasmin when the plasmin concentration is 0.01 unit and more per milliliter, it is possible by the addition of an amino acid to produce clear neutral plasmin solutions having a plasmin concentration up to 25 units per milliliter.

[8] = Stability of plasmin solutions without amino acid
Text: Further, it is possible to produce a sterile plasmin solution which is adjusted to pH 1 to 4. […] By mixing such solution before use with a sterile amino acid solution which has either been buffered with one of the normal acid-base-buffer systems or has a sufficient amino acid content, it is possible to obtain a neutral stable plasmin solution.

[9] = 0.010 millimole L-lysine per plasmin unit
[10] = 0.021 millimole L-lysine per plasmin unit
[11] = 0.042 millimole L-lysine per plasmin unit
[12] = pH 7.5, read-out: Activity expressed in per cent of the total activity

In the case of `NC(N)=O` [urea], the “effect on autolysis of plasmin” value [1] is listed as “may inhibit this autolysis”.

`NCCCCCC(=O)O` [ε-amino caproic acid] showed an activity at 800000 µM ([2]; Undiluted, 0.8 millimole amino acid per ml, 2 millimoles per plasmin unit, about 0.4 unit per ml, pH 7.5, read-out: Activity expressed in per cent of the total activity) of 57%, an activity at 160000 µM ([2]; pH 7.5, Dilution 1:5, 0.16 millimole amino acid per ml, read-out: Activity expressed in per cent of the total activity) of 93% and an activity at 320000 µM ([2]; pH 7.5, Dilution 2:5, 0.32 millimole amino acid per ml, read-out: Activity expressed in per cent of the total activity) of 84%. For the same molecule, the activity at 480000 µM ([2]; pH 7.5, Dilution 3:5, 0.48 millimole amino acid per ml, read-out: Activity expressed in per cent of the total activity) was 71%, the activity at 640000 µM ([2]; pH 7.5, Dilution 4:5, 0.64 millimole amino acid per ml, read-out: Activity expressed in per cent of the total activity) was 65% and the “concentration at which it acts as an inhibitor of the action of plasmin” value (plasmin [3]) was “above 0.03 M”. The “concentration at which it exhibits an enhancing effect on the action of plasmin” value (plasmin [3]) was “up to 0.02 M”, the “stabilizing effect (in words)” value [4] was “stabilize considerably better than β-alanine” and the “stabilizing effect (in words)” value ([4]; listed as ε-amino caproic acids) was “strongly stabilizing effect”.

For `NCCCC[C@H](N)C(=O)O` [L-lysine], the “% activity after 120 min. at 25°C” value (plasmin [5]; 0.005 millimole L-lysine per plasmin unit, without lysine 70) was 78%, the “% activity after 60 min. at 25°C” value (plasmin [5]; 0.005 millimole L-lysine per plasmin unit, without lysine 77) was 88% and the “% activity after 60 min. at 25°C” value (plasmin [5]; [9]) was 91%. The “% activity after 120 min. at 25°C” value (plasmin [5]; [9]) was 84%, the “% activity after 60 min. at 25°C” value (plasmin [5]; [10]) was 99% and the “% activity after 120 min. at 25°C” value (plasmin [5]; [10]) was 91%. For the same molecule, the “% activity after 60 min. at 25°C” value (plasmin [5]; [11]) was 100%, the “% activity after 120 min. at 25°C” value (plasmin [5]; [11]) was 99% and the “lysine concentration necessary to avoid a plasmin loss by standing for two hours” value (plasmin [5]; 25°C) was 0.04 millimole per plasmin unit. The “lysine concentration sufficient to allow only a plasmin loss of about 20 per cent by standing for 2 hours” value (plasmin [5]; 25°C) was “about 0.005 millimole per plasmin unit”, the “lysine concentration necessary to allow only a plasmin loss of about 20 per cent by standing for 2 hours” value (plasmin [5]; 35.5°C) was “about 0.1 millimole per plasmin unit” and the “lysine concentration necessary to avoid a plasmin loss by standing for two hours” value (plasmin [5]; 35.5°C, plasmin concentration of 0.4 plasmin units per ml) was “above 0.25 millimole per plasmin unit”. For the same molecule, the “reversibility of the inactivation by dilution” value ([2]; Table IV) was “reversible”, the activity at 160000 µM [2, 12] was 97% and the activity at 320000 µM [2, 12] was 100%. For the same molecule, the activity at 480000 µM [2, 12] was 92%, the activity at 640000 µM [2, 12] was 84% and the activity at 800000 µM [2, 12] was 88%. For the same molecule, the “lysine concentration above which it has an inactivating effect on the plasmin solution” value ([2]; plasmin concentration 1/2 unit per millimole lysine) was “above 0.32 millimole per ml”, the “initial loss of plasmin in the course of a few minutes” value (plasmin [6]; lysine 0.002 millimole per plasmin unit) was 20 per cent and the “initial loss of plasmin” value (plasmin [6]; lysine 0.04 millimole per plasmin unit) was “avoid completely an initial loss”. For the same molecule, the “stabilizing effect (in words)” value [4] was “strongly stabilizing effect” and the “stabilizing effect (in words)” value ([4]; listed as lysine) was “most vigorous stabilizing effect”.

With `NCC(=O)NCC(=O)O` [Glycyl glycine] (H-Gly-Gly-OH) the “stabilizing effect (in words)” value [4] was “strongly stabilizing effect”.

With `N=C(N)NCC(=O)O` [Guanidino acetic acid] the “stabilizing effect (in words)” value [4] was “considerably better than that of glycine and DL-valine”.

For `CC(=O)N[C@@H](CCCNC(=N)N)C(=O)O` [α-N-acetyl-L-arginine], the “stabilizing effect (in words)” value [4] was “excellent stabilizing effect”.

In the case of `NCCCC(=O)O` [γ-amino butyric acid], the “stabilizing effect (in words)” value [4] is reported as “stabilize considerably better than β-alanine”.

With `N[C@@H](CC(=O)O)C(=O)O` [L(+)-aspartic acid] the “stabilizing effect (in words)” value [4] was “almost identical with that of glycine”.

For `CN` [methylamine], the “effect on autolysis of plasmin” value [1] is listed as “may inhibit this autolysis”.

In the case of `NCC(=O)O` [Glycine], the “stabilizing effect (in words)” value [4] is reported as “rather insignificant; also recorded: faintly stabilizing effect”.

In the case of `CN(CC(=O)O)C(=N)N` [Creatine], the “stabilizing effect (in words)” value [4] is reported as “considerably better than that of glycine and DL-valine”.

In the case of `O=C(O)[C@@H]1C[C@@H](O)CN1` [L(-)-hydroxyproline], the “stabilizing effect (in words)” value [4] is reported as “limited stabilizing effect”.

With `O=C(O)[C@@H]1CCCN1` [L(-)-proline] the “stabilizing effect (in words)” value [4] was “limited stabilizing effect”.

For `CSCCC(N)C(=O)O` (racemic) [DL-methionine], the “stabilizing effect (in words)” value [4] was “possible to obtain a stabilizing effect”.

B1: plasmin: proteolytic enzyme plasmin in aqueous solution without amino acid addition (protein, UniProt P00747 20-580; P00747 581-810, looked up)
Plasmin heavy chain A: EPLDDYVNTQGASLFSVTKKQLGAGSIEECAAKCEEDEEFTCRAFQYHSKEQQCVIMAENRKSSIIIRMRDVVLFEKKVYLSECKTGNGKNYRGTMSKTKNGITCQKWSSTSPHRPRFSPATHPSEGLEENYCRNPDNDPQGPWCYTTDPEKRYDYCDILECEEECMHCSGENYDGKISKTMSGLECQAWDSQSPHAHGYIPSKFPNKNLKKNYCRNPDRELRPWCFTTDPNKRWELCDIPRCTTPPPSSGPTYQCLKGTGENYRGNVAVTVSGHTCQHWSAQTPHTHNRTPENFPCKNLDENYCRNPDGKRAPWCHTTNSQVRWEYCKIPSCDSSPVSTEQLAPTAPPELTPVVQDCYHGDGQSYRGTSSTTTTGKKCQSWSSMTPHRHQKTPENYPNAGLTMNYCRNPDADKGPWCFTTDPSVRWEYCNLKKCSGTEASVVAPPPVVLLPDVETPSEEDCMFGNGKGYRGKRATTVTGTPCQDWAAQEPHRHSIFTPETNPRAGLEKNYCRNPDGDVGGPWCYTTNPRKLYDYCDVPQCAAPSFDCGKPQVEPKKCPGR
Plasmin light chain B: VVGGCVAHPHSWPWQVSLRTRFGMHFCGGTLISPEWVLTAAHCLEKSPRPSSYKVILGAHQEVNLEPHVQEIEVSRLFLEPTRKDIALLKLSSPAVITDKVIPACLPSPNYVVADRTECFITGWGETQGTFGAGLLKEAQLPVIENKVCNRYEFLNGRVQSTELCAGHLAGGTDSCQGDSGGPLVCFEKDKYILQGVTSWGLGCARPNKPGVYVRVSRFVTWIEGVMRNN
modifications: Plasmin
notes: proteolytic enzyme plasmin in aqueous solution without amino acid addition
In the case of B1, the “plasmin concentration at which a neutral solution in water becomes turbid due to precipitation of plasmin” value [7] is listed as at least 0.01 unit per milliliter, the “stability in neutral solutions” value ([1]; rapid loss of proteolytic activity at 37°C) is listed as “unstable” and the “plasmin concentration above which neutral solutions must be considered unstable” value ([8]; criterion: highest permissible loss 20 per cent in 2 hours at 25°C) is listed as “more than 0.1 unit per milliliter”. For the same molecule, the “stability of acid sterile plasmin solution” value ([8]; pH 1 to 4, stored at 4°-5°C) was “stable for several months” and the “stability of aqueous plasmin solution” value ([8]; pH-value of 2 to 3, temperatures up to 35°C) was “practically completely stable”.
